Results taken from US20090093541A1, “MELANIN ELIMINATOR PREPARATION” (OGA RESEARCH, INC, priority 2002, published 2009).

How the values were obtained:
blotches and lentigines = experiment: Lotion applied to blotches and lentigines (general description); format: in vivo, human; conditions: lotion containing 0.5 (w/w)%; applied one or two times daily; about one month
From the text: The effect was also noted on blotches formed on the acne scars, showing clear difference compared with the pre-treatment conditions.

[1] = system: lentigo (1-mm diameter) on the arm; experiment: Test Example 5: topical application to a lentigo on the arm; format: in vivo, human; conditions: topically applied twice daily, preparation according to Preparation Example 1, two months later
Protocol: To a lentigo (1-mm diameter) on the arm was topically applied twice daily a preparation that was prepared according to Preparation Example 1 except that N-(6,8-dimercaptooctanoyl)histidine sodium/zinc chelate of Example 2 was used instead of N-(6,8-dimercaptooctanoyl)anthranilic acid sodium/zinc chelate of Example 2.

Substance	melanin eliminating effect on blotches and lentigines (fading from black to pale umber or falling off as a scab) (blotches and lentigines)	elimination of black color of lentigo [1]
N-(6,8-dimercaptooctanoyl)-3-aminopropionic acid sodium/zinc chelate compound [Example 10]	satisfactory effects	–
N-(6,8-dimercaptooctanoyl)anthranilic acid sodium/zinc chelate compound [Reference Example 8]	satisfactory effects	–
N-(6,8-dimercaptooctanoyl)histidine sodium/zinc chelate compound [Example 2]	–	the black color was found eliminated leaving a subtle scar behind
